The record followed here is patent US10392368B2, “Pyrazolo and triazolo bicyclic compounds as JAK kinase inhibitors” (THERAVANCE BIOPHARMA R&D IP, LLC, priority 2017, dated 2019).

The structures appear in SMILES notation.

One test deals with T1, JAK3 (Homo sapiens, UniProt P52333).
T1 sequence (P52333 1-1124): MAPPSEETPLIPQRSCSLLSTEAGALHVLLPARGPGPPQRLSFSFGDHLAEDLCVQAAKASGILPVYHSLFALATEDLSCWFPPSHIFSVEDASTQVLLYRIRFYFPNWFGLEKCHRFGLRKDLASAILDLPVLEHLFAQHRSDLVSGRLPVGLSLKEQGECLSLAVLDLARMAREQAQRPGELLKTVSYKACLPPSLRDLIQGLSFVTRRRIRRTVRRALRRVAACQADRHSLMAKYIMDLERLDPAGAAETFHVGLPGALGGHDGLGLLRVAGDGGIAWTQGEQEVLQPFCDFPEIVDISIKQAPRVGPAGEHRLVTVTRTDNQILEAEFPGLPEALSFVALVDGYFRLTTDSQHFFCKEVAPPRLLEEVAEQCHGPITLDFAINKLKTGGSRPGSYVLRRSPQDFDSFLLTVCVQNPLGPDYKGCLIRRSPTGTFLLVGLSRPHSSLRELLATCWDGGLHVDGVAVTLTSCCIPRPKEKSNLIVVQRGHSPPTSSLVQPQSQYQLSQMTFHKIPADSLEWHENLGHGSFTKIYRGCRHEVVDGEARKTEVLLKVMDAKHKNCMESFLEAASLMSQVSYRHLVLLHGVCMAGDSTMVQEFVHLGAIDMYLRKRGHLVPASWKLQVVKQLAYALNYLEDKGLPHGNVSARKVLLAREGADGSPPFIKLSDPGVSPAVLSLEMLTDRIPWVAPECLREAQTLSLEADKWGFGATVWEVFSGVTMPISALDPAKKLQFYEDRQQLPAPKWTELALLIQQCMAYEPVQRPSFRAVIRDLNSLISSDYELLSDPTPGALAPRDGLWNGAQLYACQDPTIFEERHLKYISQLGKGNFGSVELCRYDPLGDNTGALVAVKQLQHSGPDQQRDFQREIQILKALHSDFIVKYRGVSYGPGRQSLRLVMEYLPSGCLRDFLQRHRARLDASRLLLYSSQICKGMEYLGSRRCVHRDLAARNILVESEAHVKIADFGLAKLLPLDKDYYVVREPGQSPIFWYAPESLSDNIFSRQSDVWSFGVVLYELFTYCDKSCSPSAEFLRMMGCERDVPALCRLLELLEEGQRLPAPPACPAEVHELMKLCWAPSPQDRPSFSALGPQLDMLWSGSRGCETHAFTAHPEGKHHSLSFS
The test is described as follows: Biochemical JAK3 kinase assay (LanthaScreen). Set-up: GST; purchased Life Technologies. Conditions: for Ki: read-out: JAK 3 (pKi) (converted); for JAK3 (pKi)-JAK1 (pKi): selectivity: difference of pKi JAK3 and pKi JAK1. In outline:
(§1)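 Values are pKi, calculated by Cheng-Prusoff from IC50 obtained by robust 4-parameter fitting of percent inhibition. The kinase reaction used GFP-STAT1 peptide in HEPES pH 7.5 buffer with MgCl2, EGTA and Brij-35, ATP-initiated after compound pre-incubation, 1 h at ambient temperature.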
(TR-FRET usually uses a lanthanide donor and a delayed reading to cut background.)

Test [1] deals with IL-2 stimulated pSTAT5 in Tall-1 T cells. The test can be described thus: Cellular JAK3 potency assay: inhibition of IL-2 stimulated pSTAT5 in Tall-1 T cells. It counts as cell-based, human. As to conditions: Homo sapiens, TALL-1, IL-2 stimulated pSTAT5 in Tall-1 T cells; read-out: Tall-1 (pIC50) (converted). In outline:
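In human Tall-1 T cells, IL-2 (300 ng/ml final, 30 min) drives STAT5 phosphorylation after a 1 h compound pretreatment. Lysates are assayed for pSTAT5 by AlphaLisa, and IC50 derived from signal versus concentration is expressed as pIC50.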

Another test has as its target T2, JAK1 (Homo sapiens, UniProt P23458).
T2 construct: GST; purchased Life Technologies
The test is described as follows: Biochemical JAK1 kinase assay (LanthaScreen). Conditions: read-out: JAK 1 (pKi) (converted). In outline: as §1

T2 sequence (P23458 whole entry): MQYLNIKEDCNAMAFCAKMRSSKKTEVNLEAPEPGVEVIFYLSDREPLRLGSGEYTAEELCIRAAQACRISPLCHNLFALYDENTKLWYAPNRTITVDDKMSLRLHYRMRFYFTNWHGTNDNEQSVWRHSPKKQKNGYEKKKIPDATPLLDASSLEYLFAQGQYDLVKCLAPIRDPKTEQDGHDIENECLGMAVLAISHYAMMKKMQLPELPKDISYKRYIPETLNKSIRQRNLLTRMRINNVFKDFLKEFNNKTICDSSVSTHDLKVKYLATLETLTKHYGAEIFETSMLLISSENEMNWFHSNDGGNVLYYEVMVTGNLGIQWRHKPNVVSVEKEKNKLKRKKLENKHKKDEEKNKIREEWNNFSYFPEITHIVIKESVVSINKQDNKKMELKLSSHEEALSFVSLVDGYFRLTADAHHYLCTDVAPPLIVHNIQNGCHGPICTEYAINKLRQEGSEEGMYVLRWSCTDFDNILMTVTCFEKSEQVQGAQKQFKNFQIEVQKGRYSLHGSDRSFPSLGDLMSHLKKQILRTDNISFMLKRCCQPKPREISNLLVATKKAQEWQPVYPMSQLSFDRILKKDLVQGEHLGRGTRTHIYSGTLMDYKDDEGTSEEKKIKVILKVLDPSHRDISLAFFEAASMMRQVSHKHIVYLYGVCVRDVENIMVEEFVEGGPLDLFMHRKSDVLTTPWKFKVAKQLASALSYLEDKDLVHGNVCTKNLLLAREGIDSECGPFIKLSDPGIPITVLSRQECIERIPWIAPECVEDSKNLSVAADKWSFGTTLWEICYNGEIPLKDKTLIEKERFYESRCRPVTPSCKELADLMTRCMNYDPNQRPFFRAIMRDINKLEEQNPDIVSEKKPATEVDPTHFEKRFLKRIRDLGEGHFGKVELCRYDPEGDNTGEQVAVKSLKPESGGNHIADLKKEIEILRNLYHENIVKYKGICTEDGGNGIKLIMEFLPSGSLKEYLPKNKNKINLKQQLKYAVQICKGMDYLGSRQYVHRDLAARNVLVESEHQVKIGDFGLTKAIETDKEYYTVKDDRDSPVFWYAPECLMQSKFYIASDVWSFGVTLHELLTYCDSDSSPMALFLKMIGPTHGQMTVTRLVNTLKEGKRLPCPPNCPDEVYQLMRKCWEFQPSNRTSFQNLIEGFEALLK

Regarding `CN(C)C/C=C/C(=O)N1CC(COc2cc(-c3ccc(O)cc3)cc3[nH]ncc23)C1` [Compound 1, (E)-4-(dimethylamino)-1-(3-(((6-(4-hydroxyphenyl)-1H-indazol-4-yl)oxy)methyl)azetidin-1-yl)but-2-en-1-one], the Ki on JAK3 was < 0.1 nM; on JAK1, > 100 nM. In addition, the “JAK3 (pKi)-JAK1 (pKi)” value at JAK3 is given as “A (a value of 3 or above)”. The IC50 in test [1] is 31.6 to 200 nM.

As to `C=CC(=O)N1CC(C)(COc2nc(-c3ccc(O)c(F)c3)nc3[nH]ncc23)C1` [Compound 21, 1-(3-(((6-(3-fluoro-4-hydroxyphenyl)-1H-pyrazolo[3,4-d]pyrimidin-4-yl)oxy)methyl)-3-methylazetidin-1-yl)prop-2-en-1-one], at JAK3, the Ki is < 0.1 nM and the “JAK3 (pKi)-JAK1 (pKi)” value is given as “A (a value of 3 or above)”. Besides, in test [1], the IC50 was 31.6 to 200 nM. On JAK1, the Ki is > 100 nM.

As to `C=CC(=O)N1CC[C@H](COc2cc(-c3ccc(O)cc3)cc3[nH]ncc23)C1` [Compound 7, (S)-1-(3-(((6-(4-hydroxyphenyl)-1H-indazol-4-yl)oxy)methyl)pyrrolidin-1-yl)prop-2-en-1-one], at JAK3, the Ki was 0.1 to 1 nM and the “JAK3 (pKi)-JAK1 (pKi)” value is “A (a value of 3 or above)”. In test [1], the IC50 is 31.6 to 200 nM. For the same molecule, on JAK1, the Ki was > 100 nM.

`C=CC(=O)N1CC(CC)(COc2cc(-c3ccc(O)cc3)nc3[nH]ncc23)C1` [Compound 22, 1-(3-ethyl-3-(((6-(4-hydroxyphenyl)-1H-pyrazolo[3,4-b]pyridin-4-yl)oxy)methyl)azetidin-1-yl)prop-2-en-1-one]: the Ki at JAK3 is < 0.1 nM; on JAK1 it was > 100 nM. The “JAK3 (pKi)-JAK1 (pKi)” value on JAK3 is given as “A (a value of 3 or above)”. The IC50 in test [1] is 31.6 to 200 nM.

As to `C=CC(=O)N1CC(C(C)(C)Oc2cc(-c3ccc(O)cc3)nc3[nH]ncc23)C1` [Compound 20, 1-(3-(2-((6-(4-hydroxyphenyl)-1H-pyrazolo[3,4-b]pyridin-4-yl)oxy)propan-2-yl)azetidin-1-yl)prop-2-en-1-one], on JAK3, the Ki is < 0.1 nM and the “JAK3 (pKi)-JAK1 (pKi)” value is “A (a value of 3 or above)”. The IC50 in test [1] was < 31.6 nM. The Ki on JAK1 is > 100 nM.

Consider `CN(C)C/C=C/C(=O)N1CC(COc2cc(-c3ccc(O)c(F)c3)cc3[nH]ncc23)C1` [Compound 5, (E)-4-(dimethylamino)-1-(3-(((6-(3-fluoro-4-hydroxyphenyl)-1H-indazol-4-yl)oxy)methyl)azetidin-1-yl)but-2-en-1-one], for which, at JAK3, the Ki is < 0.1 nM and the “JAK3 (pKi)-JAK1 (pKi)” value is on record as “A (a value of 3 or above)”. In addition, in test [1], the IC50 is 31.6 to 200 nM. The Ki at JAK1 was > 100 nM.

As to `CN(C)C/C=C/C(=O)N1CCC(C)(Oc2cc(-c3ccc(O)cc3)cc3[nH]ncc23)CC1` [Compound 9, (E)-4-(dimethylamino)-1-(4-((6-(4-hydroxyphenyl)-1H-indazol-4-yl)oxy)-4-methylpiperidin-1-yl)but-2-en-1-one], on JAK3, the Ki is 0.1 to 1 nM and the “JAK3 (pKi)-JAK1 (pKi)” value is “A (a value of 3 or above)”. Moreover, the IC50 in test [1] is 31.6 to 200 nM. For the same molecule, the Ki at JAK1 is > 100 nM.

As to `C=CC(=O)N1CC[C@H](Oc2cc(-c3ccc(O)c(Cl)c3)cc3[nH]ncc23)C1` [Compound 2, (S)-1-(3-((6-(3-chloro-4-hydroxyphenyl)-1H-indazol-4-yl)oxy)pyrrolidin-1-yl)prop-2-en-1-one], the figures for the Ki at JAK3 and at JAK1 were < 0.1 nM and > 100 nM, respectively. Besides, on JAK3, the “JAK3 (pKi)-JAK1 (pKi)” value is “A (a value of 3 or above)”. For the same molecule, the IC50 in test [1] was < 31.6 nM.

Turning to `C=CC(=O)N1CC(COc2nc(-c3ccc(O)cc3)nc3[nH]ncc23)C1` [Compound 4, 1-(3-(((6-(4-hydroxyphenyl)-1H-pyrazolo[3,4-d]pyrimidin-4-yl)oxy)methyl)azetidin-1-yl)prop-2-en-1-one], the results for the Ki on JAK3 and at JAK1 were < 0.1 nM and > 100 nM, respectively. On JAK3, the “JAK3 (pKi)-JAK1 (pKi)” value is “A (a value of 3 or above)”. Moreover, the IC50 in test [1] is 31.6 to 200 nM.

Take `C=CC(=O)N1CCO[C@@H](C(=O)Nc2cc(-c3ccc(O)cc3)cc3[nH]ncc23)C1` [Compound 6, (R)-4-acryloyl-N-(6-(4-hydroxyphenyl)-1H-indazol-4-yl)morpholine-2-carboxamide]: on JAK3, the Ki is < 0.1 nM and the “JAK3 (pKi)-JAK1 (pKi)” value is on record as “A (a value of 3 or above)”. For the same molecule, the IC50 in test [1] is < 31.6 nM. For the same molecule, the Ki at JAK1 was > 100 nM.

As for `CN(C)C/C=C/C(=O)N1CC(C#N)(COc2cc(-c3ccc(O)c(F)c3)cc3[nH]ncc23)C1` [Compound 8, (E)-1-(4-(dimethylamino)but-2-enoyl)-3-(((6-(3-fluoro-4-hydroxyphenyl)-1Hindazol-4-yl)oxy)methyl)azetidine-3-carbonitrile], on JAK3, the Ki is < 0.1 nM and the “JAK3 (pKi)-JAK1 (pKi)” value was “A (a value of 3 or above)”. For the same molecule, the IC50 in test [1] is < 31.6 nM. The Ki at JAK1 was > 100 nM.

`CN(C)C/C=C/C(=O)N1CC(C(C)(C)Oc2cc(-c3ccc(O)c(Cl)c3)cc3[nH]ncc23)C1` [Compound 3, (E)-1-(3-(2-((6-(3-chloro-4-hydroxyphenyl)-1H-indazol-4-yl)oxy)propan-2-yl)azetidin-1-yl)-4-(dimethylamino)but-2-en-1-one]: the Ki on JAK3 was 0.1 to 1 nM; on JAK1, > 100 nM. In addition, the “JAK3 (pKi)-JAK1 (pKi)” value on JAK3 is recorded as “A (a value of 3 or above)”. Moreover, the IC50 in test [1] is 31.6 to 200 nM.
